{"source": "patent US20080081078A1", "about": "“Prevention of Cell Proliferation by Inhibiting Myosin Light Chain Kinase” (The Board of Trustees of the University of Illinois, priority 2006, published 2008)", "key": {"[1]": {"system": "Mm5MT mouse mammary cancer cells", "test": "Annexin V / PI flow cytometry apoptosis assay in Mm5MT cells", "assay_type": "cell-based", "description": "(§1) The Mm5MT mouse mammary adenocarcinoma cancer cell line was obtained from American Type Culture Collection (ATCC, Manassas, Va., USA) and was maintained in DMEM medium supplemented with 10% fetal bovine serum (FBS) and 100 U/ml penicillin, 100 μg/ml streptomycin. The MatLy-Lu (MLL) sub-line of the Dunning R-3327 prostate adenocarcinoma (graciously provided by B. Lokeshwar, University of Miami) (Lokeshwar et al., Int. J. Cancer 2002; 98:297-309) was maintained in RPMI1640 medium supplemented with 10% FBS, 250 nM dexamethasone, 100 U/ml penicillin and 100 μg/ml streptomycin.\nMm5MT or MLL cells (200,000 cells per well) were seeded in 6-well dishes one day before drug treatment and cultured as described above. On the day of the experiment, media was changed to DMEM supplemented with 0.5% FBS and the cells were treated with drugs as defined by the specific experimental protocol. ML-7 (Biomol, Plymouth Meeting, Pa.) was incubated with cells for 16 h when used alone. When used in combination with etoposide, ML-7 was added to cells 2 h before adding the indicated concentration of etoposide (Calbiochem, La Jolla, Calif.) and the cells were incubated with ML-7 and etoposide for an additional 16 h. The cells were then treated with trypsin, washed twice with cold PBS and re-suspended in 100 μl of buffer containing 10 mM Hepes, pH 7.4, 140 mM NaCl and 2.5 mM CaCl2 (binding buffer). […] Next, 400 μl of binding buffer was added per sample and the cells were analyzed cytofluorometrically using a Coulter Epics Elite ESP flow cytometer (Ex: 488 nm, Em: 585 nm). At least 10,000 cells were counted per analysis and cells that stained positive for annexin V and PI were judged to be apoptotic.\n(§2) Cells were grown in culture dishes in Dulbecco's Modified Eagle Medium (Gibco BRL, Gaithersburg, Md.) supplemented with 10% FBS and 1% penicillin and streptomycin. […] The floating and attached cells were combined and analyzed using conventional methods.\n(§3) To quantify apoptosis, cells were washed twice with cold PBS, resuspended in 100 μl of 10 mM Hepes, pH 7.4, 140 mM NaCl, 2.5 mM CaCl2 (Binding Buffer). […] After incubation, 400 μl of binding buffer was added per sample and cells were analyzed cytofluorimetrically using a Coulter Epics Elite ESP flow cytometer (excitation wavelength: 488 nm, emission wavelength: 585 nm). At least 10,000 cells were counted per analysis and cells that stained positive for Annexin V and PI were considered apoptotic.\nThe combined effects of ML-7 and etoposide to induce apoptosis in mouse Mm5MT mammary cancer cells was determined by pre-treating cells with vehicle (FIG. 9, open bar) or 10 μM ML-7 (shaded bar) for 2 h. Varying concentrations of etoposide (1-1000 μM) were then added and apoptosis was quantified 16 h later. […]"}, "[2]": {"system": "MLL rat prostate cancer cells", "test": "Annexin V / PI flow cytometry apoptosis assay in MLL (MatLyLu) cells", "assay_type": "cell-based", "description": "as §1\nMm5MT or MLL cells (200,000 cells per well) were seeded in 6-well dishes one day before drug treatment and cultured as described above. On the day of the experiment, media was changed to DMEM supplemented with 0.5% FBS and the cells were treated with drugs as defined by the specific experimental protocol. ML-7 (Biomol, Plymouth Meeting, Pa.) was incubated with cells for 16 h when used alone. When used in combination with etoposide, ML-7 was added to cells 2 h before adding the indicated concentration of etoposide (Calbiochem, La Jolla, Calif.) and the cells were incubated with ML-7 and etoposide for an additional 16 h. The cells were then treated with trypsin, washed twice with cold PBS and re-suspended in 100 μl of buffer containing 10 mM Hepes, pH 7.4, 140 mM NaCl and 2.5 mM CaCl2 (binding buffer). Then, 5 μl of FITC-conjugated annexin V (Pharmingen, San Diego, Calif.) and 10 μl of propidium iodide (PI) (50 μg/ml) were added and cells were incubated in the dark at room temperature for 15 min. Next, 400 μl of binding buffer was added per sample and the cells were analyzed cytofluorometrically using a Coulter Epics Elite ESP flow cytometer (Ex: 488 nm, Em: 585 nm). At least 10,000 cells were counted per analysis and cells that stained positive for annexin V and PI were judged to be apoptotic.\nas §2, §3\nCells were collected 16 h after adding etoposide and apoptosis was quantified by FACS analysis."}, "MLC-P": {"system": "MLC-P", "test": "MLC-P by urea/glycerol gel immunoblotting in Mm5MT cells", "assay_type": "cell-based, mouse", "conditions": "10 μM ML-7, 30 μM etoposide or both, 16 h", "quoted_text": "MLC-P protein was measured by urea/glycerol gel immunoblotting. Mm5MT or MLL cancer cells in 6-well plates were treated with ML-7 (10 or 5 μM, respectively) or etoposide (30 μM) or combination of two at indicated concentrations for 16 h. MLC-P in cancer cells was then quantified by the urea/glycerol gel-immunoblotting method. Briefly, cancer cells were fixed in 10% trichloroacetic acid (TCA) containing 10 mM dithiothreitol (DTT). Cell pellets were washed four times with acetone and protein was extracted by dissolving in buffer containing 9 M urea, 10 mM DTT and 20 mM Tris, pH 8.0. […] This antibody recognizes the unphosphorylated and phosphorylated forms of MLC20. Immunoreactive bands were visualized using enhanced chemiluminescence (ECL) detection reagents (Amersham Pharmacia Biotech, Piscataway, N.J.).\nMLC-P was measured by urea/glycerol gel-immunoblotting as described above. Un and P identify unphosphorylated and phosphorylated MLC20, respectively. […] This experiment was repeated four times and the data from a representative experiment is shown."}, "MLL cells": {"system": "MLL cells", "test": "MLL prostate tumor in Copenhagen rats, ML-7 and/or etoposide", "assay_type": "in vivo", "description": "To determine whether ML-7 stimulated the ability of etoposide to induce apoptosis and retard tumor growth more generally in tumor cells, the effects of ML-7 and etoposide on MLL prostate cancer cells were examined. MLL cells grown in culture were harvested and washed in serum-free Hank's buffer. The cells were suspended in 500 μl serum-free Hank's media and 10^6 cells were injected subcutaneously into the right flank of 12-week old male Copenhagen rats anesthetized with ether. […] Rats were randomly divided into four groups, five in each group, and received injections of ML-7 or vehicle via the jugular vein every 4 days for 2 weeks. ML-7 was used at the dose of 35 mg/kg. In mice receiving etoposide the drug was injected IP at the maximum tolerant dose of 50 mg/m^2 daily. Rats were sacrificed with ether 14 days after the start of drug treatment, and tumors removed, weighed and processed as described below.\nTo test the anticancer effect of ML-7 in a rat prostate cancer model, ML-7 or vehicle was administered by intrajugular injection, and etoposide administered by intraperitoneal injection. Male Copenhagen rats were inoculated with MLL cells as described above. […] The rats were sacrificed after 14 days of drug treatment and tumor weight and body weight were recorded.\nTumor sections were deparaffinized and rehydrated according to standard procedures. […]"}}, "note": "Where two headings read alike, the source gives them in different places.", "data": [{"compound": "COc1cc([C@@H]2c3cc4c(cc3[C@@H](O[C@@H]3O[C@@H]5CO[C@@H](C)O[C@H]5[C@H](O)[C@H]3O)[C@H]3COC(=O)[C@H]23)OCO4)cc(OC)c1O", "note": "[etoposide]", "values": [{"measurement": "EC50", "setting": "[1]; etoposide alone, extrapolation (FIG. 8), read-out: concentration of etoposide required to induce apoptosis in 50% of the cells", "value": "~300", "unit": "µM"}, {"measurement": "EC50", "setting": "[1]; minus ML-7, curve fitting (FIG. 9), read-out: concentration of etoposide required for inducing apoptosis in 50% of the cells", "value": 572, "unit": "µM"}, {"measurement": "EC50", "setting": "[1]; plus 10 μM ML-7 (2 h pre-treatment), curve fitting (FIG. 9), read-out: concentration of etoposide required for inducing apoptosis in 50% of the cells", "value": 25.4, "unit": "µM"}, {"measurement": "EC50", "setting": "[1]; plus ML-7 (10 μM), extrapolation (FIG. 8), read-out: concentration of etoposide required to induce apoptosis in 50% of the cells", "value": "~20", "unit": "µM"}, {"measurement": "EC50", "setting": "[2]; MLL cells, no ML-7 (FIG. 15), read-out: concentration of etoposide required for inducing apoptosis in 50% of the cells", "value": 376, "unit": "µM"}, {"measurement": "EC50", "setting": "[2]; MLL cells, with 5 μM ML-7 pre-treatment (FIG. 15), read-out: concentration of etoposide required for inducing apoptosis in 50% of the cells", "value": 68, "unit": "µM"}, {"measurement": "EC50", "setting": "[2]; MatLyLu cells, etoposide alone (FIG. 7), read-out: half-maximal concentration for producing apoptosis", "value": "~410", "unit": "µM"}, {"measurement": "EC50", "setting": "[2]; MatLyLu cells, etoposide plus 5 μM ML-7 (FIG. 7), read-out: half-maximal concentration for producing apoptosis", "value": "~40", "unit": "µM"}, {"measurement": "MLC-P", "setting": "MLC-P", "value": "decreased MLC-P"}, {"measurement": "TUNEL positive nuclei in tumors", "setting": "MLL cells; 300 cells, MLL tumors in rats (FIG. 17)", "value": 35.8, "unit": "%"}, {"measurement": "decrease in tumor weight vs vehicle control", "setting": "MLL cells; rats, ML-7 35 mg/kg jugular vein every 4 days, etoposide 50 mg/m^2 IP daily, 14 days", "value": 43.3, "unit": "%"}]}]}
